Among the data in patent US9637486B2, “Btk inhibitors” (MERCK SHARP & DOHME CORP., priority 2013, dated 2017) are IC50 values, retold here.

The structures appear in SMILES notation.

This assay deals with BTK enzyme (hBTK, full-length recombinant) (Homo sapiens (Human), UniProt Q06187). Put plainly: Btk enzyme activity assay, LANCE TR-FRET. The conditions noted are these: 50 pM hBTK, 2 μM biotin-A5-peptide, 25 μM ATP; 60 minute compound & enzyme incubation; read-out: BTK binding IC50. The format is biochemical. The method, then: Also BTK enzymatic activity was determined with the LANCE (Lanthanide Chelate Excite) TR-FRET (Time-resolved fluorescence resonance energy transfer) assay. […] Following a 60 minute compound & enzyme incubation, each reaction was initiated by the addition of 2.5 μL 1× kinase buffer containing 8 μM biotinylated “A5” peptide (Biotin-EQEDEPEGDYFEWLE-NH2), and 100 μM ATP. The final reaction in each well of 10 μL consists of […], 2 μM biotin-A5-peptide, and 25 μM ATP. Phosphorylation reactions were allowed to proceed for 120 minutes. Reactions were immediately quenched by the addition of 20 uL of 1× quench buffer (15 mM EDTA, 25 mM Hepes 7.3, and 0.1% Triton X-100) containing detection reagents (0.626 nM of LANCE-Eu-W1024-anti-phosphoTyrosine antibody, PerkinElmer and 86.8 nM of Streptavidin-conjugated Dylight 650, Dyomics/ThermoFisher Scientific). After 60 minutes incubation with detection reagents, reaction plates were read on a PerkinElmer EnVision plate reader using standard TR-FRET protocol. Briefly, excitation of donor molecules (Eu-chelate:anti-phospho-antibody) with a laser light source at 337 nm produces energy that can be transferred to Dylight-650 acceptor molecules if this donor:acceptor pair is within close proximity. Fluorescence intensity at both 665 nm (acceptor) and 615 nm (donor) are measured and a TR-FRET ratio calculated for each well (acceptor intensity/donor intensity). […] (Log10) compound concentrations. Btk Enzyme Activity Assay Method BTK enzymatic activity was determined with the LANCE (Lanthanide Chelate Excite) TR-FRET (Time-resolved fluorescence resonance energy transfer) assay. […] Following a 60 minute compound & enzyme incubation, each reaction was initiated by the addition of 2.5 μL 1× kinase buffer containing 8 μM biotinylated “A5” peptide (Biotin-EQEDEPEGDYFEWLE-NH2), and 100 μM ATP. The final reaction in each well of 10 μL consists of 50 pM hBTK, 2 μM biotin-A5-peptide, and 25 μM ATP. Phosphorylation reactions were allowed to proceed for 120 minutes. Reactions were immediately quenched by the addition of 20 uL of 1× quench buffer (15 mM EDTA, 25 mM Hepes 7.3, and 0.1% Triton X-100) containing detection reagents (0.626 nM of LANCE-Eu-W1024-anti-phosphoTyrosine antibody, PerkinElmer and 86.8 nM of Streptavidin-conjugated Dylight 650, Dyomics/ThermoFisher Scientific). After 60 minutes incubation with detection reagents, reaction plates were read on a PerkinElmer EnVision plate reader using standard TR-FRET protocol. Briefly, excitation of donor molecules (Eu-chelate:anti-phospho-antibody) with a laser light source at 337 nm produces energy that can be transferred to Dylight-650 acceptor molecules if this donor:acceptor pair is within close proximity. Fluorescence intensity at both 665 nm (acceptor) and 615 nm (donor) are measured and a TR-FRET ratio calculated for each well (acceptor intensity/donor intensity). […] (Log10) compound concentrations.
Sequence of BTK enzyme (hBTK, full-length recombinant) (Q06187 whole entry): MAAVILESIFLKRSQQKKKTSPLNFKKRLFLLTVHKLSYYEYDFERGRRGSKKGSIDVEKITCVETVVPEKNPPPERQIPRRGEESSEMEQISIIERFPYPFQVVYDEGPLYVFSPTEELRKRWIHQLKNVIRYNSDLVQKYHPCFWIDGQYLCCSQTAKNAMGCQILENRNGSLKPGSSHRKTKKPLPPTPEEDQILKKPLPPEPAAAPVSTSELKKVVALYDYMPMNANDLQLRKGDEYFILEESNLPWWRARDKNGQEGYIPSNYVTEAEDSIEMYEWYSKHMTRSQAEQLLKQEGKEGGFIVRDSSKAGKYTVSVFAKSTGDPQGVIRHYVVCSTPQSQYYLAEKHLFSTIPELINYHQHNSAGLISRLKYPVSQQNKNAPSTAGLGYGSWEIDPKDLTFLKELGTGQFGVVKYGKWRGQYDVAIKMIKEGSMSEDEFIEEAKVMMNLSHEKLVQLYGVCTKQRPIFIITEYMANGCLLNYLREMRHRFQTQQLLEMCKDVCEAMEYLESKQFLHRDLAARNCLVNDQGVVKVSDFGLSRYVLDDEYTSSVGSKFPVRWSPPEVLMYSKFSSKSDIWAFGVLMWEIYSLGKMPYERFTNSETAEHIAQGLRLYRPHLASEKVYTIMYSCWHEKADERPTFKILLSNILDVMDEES
For the compound `CC1(C(=O)N2CCC[C@@H](c3nn(-c4ccc(Oc5ccccc5)cc4)c4c(N)nccc34)C2)COC1` [Example 1, (R)-(3-(7-amino-1-(4-phenoxyphenyl)-1H-pyrazolo[3,4-c]pyridin-3-yl)piperidin-1-yl)(3-methyloxetan-3-yl)methanone], the IC50 – broadly, the concentration that inhibits the measured activity by half – worked out at 1.7 nM.

In the case of `Nc1nccc2c([C@@H]3CCCN(C(=O)C4CC4(F)F)C3)nn(-c3ccc(Oc4ccccc4)cc3)c12` (stereo partly drawn) [Example 4, 3-{(3R)-1-[(2,2-difluorocyclopropyl)carbo-nyl]piperidin-3-yl}-1-(4-phenoxyphenyl)-1H-pyrazolo[3,4-c]pyridin-7-amine], the IC50 is 9.3 nM.

Regarding `CC1(C(=O)N2CCC[C@@H](c3nn(-c4ccc(Oc5ccc(F)cc5)cc4)c4c(N)nccc34)C2)COC1` [Example 26, (R)-(3-(7-amino-1-(4-(4-fluorophenoxy)phenyl)-1H-pyrazolo[3,4-c]pyridin-3-yl)piperidin-1-yl)(3-methyloxetan-3-yl)methanone], the IC50 worked out at 56.9 nM.

On to `C[C@H]1CC[C@@H](c2nn(-c3ccc(Oc4cccc(F)c4)cc3)c3c(N)nccc23)CN1C(=O)C1(C)COC1` [Example 28, 1-[4-(3-fluorophenoxy)phenyl]-3-{(3R,6S)-6-methyl-1-[(3-methyloxetan-3-yl)carbonyl]piperidin-3-yl}-1H-pyrazolo[3,4-c]pyridin-7-amine], for which the IC50 is 3.8 nM.

Regarding `C[C@@H](O)C(=O)N1C[C@H](c2nn(-c3ccc(Oc4cccc(F)c4)cc3)c3c(N)nccc23)CC[C@@H]1C` [Example 29, (2R)-1-[(2S,5R)-5-{7-amino-1-[4-(3-fluorophenoxy)phenyl]-1H-pyrazolo[3,4-c]pyridin-3-yl}-2-methylpiperidin-1-yl]-1-oxopropan-2-ol], the IC50 stood at 5.8 nM.
